The values that follow come from ChEMBL document CHEMBL4417631, “Oral peptide inhibitors of interleukin-23 receptor and their use to treat inflammatory bowel diseases” (2017).

Data set [1] in a line: Half life in simulated gastric fluid at 20 uM by LC-MS/MS analysis. It is filed as ADME.
A short description of data set [2]: Half life in simulated intestinal fluid at 20 uM by LC-MS/MS analysis. It is filed as ADME.
Data set [3] concerns the target T1, Interleukin-23 receptor (Homo sapiens, UniProt Q5VWK5).
T1 sequence (Q5VWK5 whole entry): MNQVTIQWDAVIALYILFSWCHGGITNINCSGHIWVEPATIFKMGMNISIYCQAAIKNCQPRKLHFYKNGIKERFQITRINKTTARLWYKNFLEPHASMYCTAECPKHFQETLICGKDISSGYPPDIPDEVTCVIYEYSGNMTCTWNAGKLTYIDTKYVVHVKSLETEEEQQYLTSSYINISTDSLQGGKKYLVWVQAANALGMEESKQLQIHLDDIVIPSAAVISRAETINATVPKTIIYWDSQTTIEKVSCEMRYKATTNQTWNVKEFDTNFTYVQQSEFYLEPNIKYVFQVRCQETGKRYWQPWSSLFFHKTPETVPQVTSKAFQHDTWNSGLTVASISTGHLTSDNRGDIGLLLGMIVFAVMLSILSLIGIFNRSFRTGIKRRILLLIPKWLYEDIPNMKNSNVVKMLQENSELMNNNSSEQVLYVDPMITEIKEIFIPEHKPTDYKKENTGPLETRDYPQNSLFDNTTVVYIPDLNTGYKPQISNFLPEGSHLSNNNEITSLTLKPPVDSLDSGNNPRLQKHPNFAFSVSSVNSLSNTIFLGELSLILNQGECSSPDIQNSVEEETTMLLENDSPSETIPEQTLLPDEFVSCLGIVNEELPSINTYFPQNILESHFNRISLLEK
As to the kind of experiment: Inhibition of interleukin-23 receptor in human DB cells assessed as reduction in IL-23-stimulated STAT3 phosphorylation incubated for 30 mins by HTRF assay. It is filed as cell-based. (Time-resolved FRET reads energy transfer from a long-lived donor to a nearby acceptor.)

The target of data set [4] is T1, Interleukin-23 receptor. As to the kind of experiment: Inhibition of interleukin-23 binding to human interleukin-23 receptor incubated for 2 hrs by competitive binding ELISA.
Data set [5] in a line: Inhibition of interleukin-23 binding to rat interleukin-23 receptor incubated for 2 hrs by competitive binding ELISA. On the technique in general: In an ELISA, binding on a coated surface is turned into a signal by an enzyme label.

Each structure is given as a SMILES string.

For orientation: half-life means the time in which the quantity being followed falls by half. For the molecule `CC(=O)NCCCC[C@H](NC(=O)C1(NC(=O)[C@H](Cc2ccc3ccccc3c2)NC(=O)[C@H](Cc2ccc(C(N)=O)cc2)NC(=O)[C@@H](NC(=O)[C@H](CCC(N)=O)NC(=O)[C@H](Cc2c[nH]c3ccccc23)NC(=O)[C@@H](NC(=O)[C@H](CC(N)=O)NC(=O)[C@@H](NC(C)=O)C(C)(C)S)[C@@H](C)O)C(C)(C)S)CCCC1)C(=O)N[C@@H](CC(N)=O)C(=O)N[C@@H](CC(N)=O)C(N)=O`, the half-life at 20 µM in data set [1] and in data set [2] was more than 6 h in each case.
Regarding `CC(=O)N[C@@H](Cc1ccccc1)C(=O)N[C@H]1CCSC[C@@H](C(=O)N[C@@H](Cc2ccc(OCCN)cc2)C(=O)N[C@@H](Cc2ccc3ccccc3c2)C(=O)N[C@@](C)(CCCCN)C(=O)N[C@@H](CCC(=O)O)C(=O)N[C@@H](CC(N)=O)C(=O)N[C@@H](CC(N)=O)C(N)=O)NC(=O)[C@H](CCC(N)=O)NC(=O)[C@H](Cc2c[nH]c3ccccc23)NC(=O)[C@H]([C@@H](C)O)NC(=O)[C@H](CCC(N)=O)NC1=O`, the figures for the half-life at 20 µM in data set [1] and in data set [2] were 2 to 3 h and 1 to 2 h, respectively.
Turning to `CC(=O)NCCCC[C@H](NC(=O)C1(NC(=O)[C@H](Cc2ccc3ccccc3c2)NC(=O)[C@H](Cc2ccc(C(N)=O)cc2)NC(=O)[C@@H](NC(=O)[C@H](CCC(N)=O)NC(=O)[C@H](Cc2c[nH]c3ccccc23)NC(=O)[C@@H](NC(=O)[C@H](CC(N)=O)NC(=O)[C@@H](NC(C)=O)C(C)(C)S)[C@@H](C)O)C(C)(C)S)CCCCC1)C(=O)N[C@@H](CC(N)=O)C(=O)N[C@@H](CC(N)=O)C(N)=O`, the half-life at 20 µM in data set [1] and in data set [2] was more than 6 h in each case.
As usually defined, the IC50 is the concentration that gives 50% inhibition. As for `CC(=O)NCCCC[C@H](NC(=O)[C@](C)(CCCCN)NC(=O)[C@H](Cc1ccc2ccccc2c1)NC(=O)[C@H](Cc1ccc2ccccc2c1)NC(=O)[C@@H]1CSCC[C@H](NC(C)=O)C(=O)N[C@@H](CCC(N)=O)C(=O)N[C@@H]([C@@H](C)O)C(=O)N[C@@H](Cc2c[nH]c3ccccc23)C(=O)N[C@@H](CCC(N)=O)C(=O)N1)C(=O)N[C@@H](CC(N)=O)C(=O)NCC(N)=O`, the half-life at 20 µM in data set [2] was 3 to 6 h. For the same molecule, the IC50 lay in the range of 10 to 25 nM on Interleukin-23 receptor [3], 25 to 100 nM on Interleukin-23 receptor [4] and 25 to 100 nM in data set [5].
Regarding `CC(=O)NCCCC[C@H](NC(=O)[C@H](CCC(C)C)NC(=O)[C@H](Cc1ccc2ccccc2c1)NC(=O)[C@H](Cc1ccc(OCCN)cc1)NC(=O)[C@@H]1CSCC[C@H](NC(C)=O)C(=O)N[C@@H](CCC(N)=O)C(=O)N[C@@H]([C@@H](C)O)C(=O)N[C@@H](Cc2c[nH]c3ccccc23)C(=O)N[C@@H](CCC(N)=O)C(=O)N1)C(=O)N[C@@H](CC(N)=O)C(=O)NCCC(N)=O`, the half-life at 20 µM in data set [2] is less than 1 h. Further, the IC50 (on Interleukin-23 receptor [3]; at Interleukin-23 receptor [4]; in data set [5]) was less than 10 nM each time.
With `CC(=O)NCCCC[C@H](NC(=O)[C@](C)(CCCN)NC(=O)[C@H](Cc1c[nH]c2ccccc12)NC(=O)[C@H](Cc1ccc(O)cc1)NC(=O)[C@@H]1CSCC[C@H](NC(C)=O)C(=O)N[C@@H](CCC(N)=O)C(=O)N[C@@H]([C@@H](C)O)C(=O)N[C@@H](Cc2c[nH]c3ccccc23)C(=O)N[C@@H](CCC(N)=O)C(=O)N1)C(=O)N[C@@H](CC(N)=O)C(=O)NCC(N)=O`, the half-life at 20 µM in data set [2] was 3 to 6 h. In addition, the values for the IC50 (at Interleukin-23 receptor [3]; on Interleukin-23 receptor [4]; in data set [5]) were 10 to 25 nM, 25 to 100 nM and 25 to 100 nM, respectively.
Molecule `CC(=O)N[C@H](C(=O)N[C@@H](CCC(N)=O)C(=O)N[C@H](C(=O)N[C@@H](Cc1c[nH]c2ccccc12)C(=O)N[C@@H](CCC(N)=O)C(=O)N[C@H](C(=O)N[C@@H](Cc1ccc(O)cc1)C(=O)N[C@@H](Cc1cccc2ccccc12)C(=O)N[C@@](C)(CCCN)C(=O)N[C@@H](CCC(=O)O)C(=O)N[C@@H](CC(N)=O)C(=O)NCC(N)=O)C(C)(C)S)[C@@H](C)O)C(C)(C)S` showed a half-life at 20 µM in data set [2] of 3 to 6 h. Besides, the IC50 lay within 25 to 100 nM at Interleukin-23 receptor [3], 100 to 1000 nM at Interleukin-23 receptor [4] and 100 to 1000 nM in data set [5].
